From US11072598B2, “Somatostatin modulators and uses thereof” (CRINETICS PHARMACEUTICALS, INC., priority 2017, dated 2021)
Read-outs that look alike come from different tables or passages of the source.

Legend:
human CYP2D6 isozyme = molecular target: T1, human CYP2D6 isozyme (Homo sapiens, UniProt P10635); test: CYP2D6 assay (Vivid CYP2D6 Blue Screening Kit); format: in vitro ADME; settings: CYP450 microsomes, fluorogenic substrate; read-out: CYP2D6 inh.
T1 construct: purchased ThermoFisher Scientific P2972
Description: On the day of the assay, various dilutions of test articles of the invention are prepared in assay buffer (Vivid® CYP2D6 Blue Screening Kit, ThermoFisher Scientific #P2972) and dilutions are added to a preparation of CYP450 microsomes expressing the functional human CYP2D6 isozyme (supplied by the kit) and incubated for 15 minutes at 37° C. to allow interactions between the test article of invention and the enzyme in the absence of enzyme turnover. The enzymatic reaction is initiated by addition of the NADPH co-factor in the precense of the fluorogenic substrate. Under normal conditions, this substrate (which is not fluorescent) is cleaved by active CYP2D6 to produce a a fluorescent product. When in the presence of test article, the lack of appearance of the fluorescent product is evidence of inhibition of the CYP2D6 enzyme by the test article. The enzymatic reaction is allowed to proceed for 30 minutes at […] and then terminated by the addition of 0.5 M Tris pH 10.8. The concentration of fluorescent cleavage product is measured using spectroscopic parameters prescribed in the kit with a Tecan M1000Pro multiplate reader. The percent inhibition is calculated based on the fluorescence intensity observed in the presence of the positive control inhibitor, quinidine (Sigma #Q3625), included in each assay. The percent inhibition is plotted versus test article concentration and an IC50 for CYP2D6 inhibition is calculated using standard methods. All data manipluations are in GraphPad Prism v6.

[1] = molecular target: T2, human somatostatin receptor subtype 2 (Homo sapiens, UniProt P30874); test: cAMP functional assay for SSTR2 agonists; format: cell-based
T2 construct: expressed in transfected cells
Summary of the method: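 CHO-K1 cells stably expressing human SSTR2 were treated for 20 min at 37 °C with compound plus NKH477 (added as 1.6 μM) in HBSS with IBMX. Intracellular cAMP was measured by HTRF against a standard curve. EC50 values came from concentration-response curves.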

hSSTR4 = molecular target: T3, hSSTR4 (Homo sapiens, UniProt P31391); test: inhibition of cAMP via hSSTR4; format: cell-based; settings: for EC50: cAMP inhibition, Table C, read-out: hSST4 (EC50); for hSST4/hSST2 (ratio): selectivity for inhibition of cAMP via hSSTR2 vs. hSSTR4
T3 construct: expressed in transfected cells
From the text: General overview: All five SSTR subtypes are Gi coupled G-protein coupled receptors (GPCRs) that lead to decreases in intracellular cyclic AMP (cAMP) when activated by an agonist. Therefore, measurement of intracellular cAMP levels can be used to assess whether compounds of the invention are agonists of SSTR subtypes (John Kelly, Troy Stevens, W. Joseph Thompson, and Roland Seifert, Current Protocols in Pharmacology, 2005, 2.2.1-2.2). One example of an intracellular cAMP assay is described below. cAMP assay protocol:
Four days prior to the assay, 5,000 Chinese hamster ovary cells (CHO-K1, ATCC #CCL-61) stably expressing the human somatostatin receptor subtype 2 are plated in each well of a 96-well tissue culture-treated plate in Ham's F12 growth media (ThermoFisher #10-080-CM) supplemented with 10% donor bovine serum (Gemini Bio-Products #100-506), 100 U/mL penicillin; 100 ug/mL streptomycin; 2 mM L-glutamine (Gemini Bio-Products #400-110) and 0.2 mg/mL hygromycin B (GoldBio #31282-04-9). The cells are cultured at 37° C., 5% CO2 and 95% humidity. On the day of the assay, the media is aspirated and the cells are treated with 50 μL of 1.6 μM NKH477 (Sigma #N3290) plus various dilutions of compounds of the invention in assay buffer [1× Hank's Balanced Salt Solution (ThermoFisher #SH3058802), 0.5 mM HEPES pH 7.4, 0.1% bovine serum albumin, 0.2 mM 3-Isobutyl-1-methylxanthine (IBMX, VWR #200002-790)]. The cells are incubated for 20 minutes at 37° C. (the final concentration of the compounds of the invention are typically 0-10,000 nM). The cells are treated with 50 μL of lysis buffer (HRTF cAMP kit, Cisbio). The lysate is transferred to 384-well plates and cAMP detection and visualization antibodies are added and incubated for 1-24 hours at room temperature. The time-resolved fluorescent signal is read with a Tecan M1000Pro multiplate reader. The intracellular cAMP concentrations are calculated by regression to a standard curve and are plotted vs. the concentration of the compounds of the invention and the EC50 of the compounds are calculated using standard methods. All data manipluations are in GraphPad Prism v6.

hERG ion channel = molecular target: T4, hERG ion channel (Homo sapiens, UniProt Q12809); test: hERG fluorescence polarization assay (Predictor kit); format: binding; settings: tracer displacement, membrane fractions; read-out: hERG inh.
T4 construct: purchased ThermoFisher Scientific PV5365
Description: On the day of the assay, various dilutions of test articles of the invention are prepared in assay buffer (Predictor™ hERG Fluorescence Polarization Assay Kit, ThermoFisher Scientific #PV5365) and dilutions are added to membranes fractions that contain the functional hERG ion channel (supplied by the kit). […] Under normal conditions, the tracer binds to the hERG channel and the fluorecence polarization measured is high. […] The concentration of free tracer is measured via fluorescence polarization using parameters prescribed in the kit with a Tecan M1000Pro multiplate reader. […] The fluorescence polarization is plotted versus test article concentration and an IC50 for hERG inhibition is calculated using standard methods. All data manipluations are in GraphPad Prism v6.

[2] = cAMP inhibition, Table C, read-out: hSST2 (EC50)
[3] = inhibition of cAMP activities via human SST2 receptor (SSTR2), CHO-K1 cells, read-out: EC50

T1 sequence (P10635 whole entry): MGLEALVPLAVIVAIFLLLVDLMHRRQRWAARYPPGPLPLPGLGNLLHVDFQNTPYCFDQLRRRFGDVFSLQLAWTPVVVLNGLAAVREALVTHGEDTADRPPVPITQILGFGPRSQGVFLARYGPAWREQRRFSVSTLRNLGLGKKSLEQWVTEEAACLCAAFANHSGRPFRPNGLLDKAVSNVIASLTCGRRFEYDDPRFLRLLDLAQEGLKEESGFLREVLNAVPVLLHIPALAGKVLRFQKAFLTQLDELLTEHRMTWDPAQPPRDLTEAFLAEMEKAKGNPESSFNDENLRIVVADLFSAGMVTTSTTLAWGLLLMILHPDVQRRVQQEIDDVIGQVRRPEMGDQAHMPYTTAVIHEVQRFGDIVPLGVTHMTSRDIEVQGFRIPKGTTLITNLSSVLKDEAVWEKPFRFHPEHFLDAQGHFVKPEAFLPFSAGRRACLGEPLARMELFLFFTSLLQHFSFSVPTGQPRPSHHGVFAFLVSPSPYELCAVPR
T4 sequence (Q12809 whole entry): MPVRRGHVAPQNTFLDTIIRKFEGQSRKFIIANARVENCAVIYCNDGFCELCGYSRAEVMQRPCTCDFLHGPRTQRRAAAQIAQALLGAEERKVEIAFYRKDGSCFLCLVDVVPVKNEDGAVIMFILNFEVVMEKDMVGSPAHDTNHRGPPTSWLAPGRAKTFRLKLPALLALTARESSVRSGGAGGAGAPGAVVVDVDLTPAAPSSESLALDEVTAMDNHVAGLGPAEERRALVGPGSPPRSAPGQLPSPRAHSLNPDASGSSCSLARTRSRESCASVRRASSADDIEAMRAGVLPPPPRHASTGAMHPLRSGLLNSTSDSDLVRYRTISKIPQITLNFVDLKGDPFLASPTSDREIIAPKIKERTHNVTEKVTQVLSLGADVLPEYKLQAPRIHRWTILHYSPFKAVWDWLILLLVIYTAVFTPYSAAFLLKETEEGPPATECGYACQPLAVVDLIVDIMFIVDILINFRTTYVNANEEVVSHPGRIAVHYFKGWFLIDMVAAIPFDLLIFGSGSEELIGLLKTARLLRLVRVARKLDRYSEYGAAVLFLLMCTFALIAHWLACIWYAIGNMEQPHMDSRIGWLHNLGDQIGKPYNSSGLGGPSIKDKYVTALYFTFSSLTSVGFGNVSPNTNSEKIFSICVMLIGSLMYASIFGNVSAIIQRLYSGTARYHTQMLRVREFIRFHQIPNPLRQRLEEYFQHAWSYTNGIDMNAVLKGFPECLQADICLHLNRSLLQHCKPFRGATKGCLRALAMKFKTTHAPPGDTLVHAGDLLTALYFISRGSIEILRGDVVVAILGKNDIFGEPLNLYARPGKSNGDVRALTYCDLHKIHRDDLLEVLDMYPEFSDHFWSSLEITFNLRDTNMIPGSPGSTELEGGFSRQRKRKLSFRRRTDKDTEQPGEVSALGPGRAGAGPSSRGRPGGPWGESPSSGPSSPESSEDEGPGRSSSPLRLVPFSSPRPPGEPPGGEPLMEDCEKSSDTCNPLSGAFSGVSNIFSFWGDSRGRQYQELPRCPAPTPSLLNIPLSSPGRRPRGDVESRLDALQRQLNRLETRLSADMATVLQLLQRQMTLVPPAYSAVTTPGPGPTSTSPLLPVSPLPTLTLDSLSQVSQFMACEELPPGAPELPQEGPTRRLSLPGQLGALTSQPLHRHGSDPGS
T2 sequence (P30874 whole entry): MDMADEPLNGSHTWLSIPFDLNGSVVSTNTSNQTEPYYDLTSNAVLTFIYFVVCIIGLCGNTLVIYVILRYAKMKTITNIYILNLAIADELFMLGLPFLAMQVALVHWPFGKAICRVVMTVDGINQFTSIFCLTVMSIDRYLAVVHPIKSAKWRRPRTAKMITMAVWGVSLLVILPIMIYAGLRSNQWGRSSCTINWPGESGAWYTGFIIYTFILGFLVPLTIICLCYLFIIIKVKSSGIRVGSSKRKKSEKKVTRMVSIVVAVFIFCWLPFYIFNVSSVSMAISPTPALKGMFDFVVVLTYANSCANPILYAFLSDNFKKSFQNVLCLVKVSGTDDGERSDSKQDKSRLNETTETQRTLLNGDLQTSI
T3 sequence (P31391 whole entry): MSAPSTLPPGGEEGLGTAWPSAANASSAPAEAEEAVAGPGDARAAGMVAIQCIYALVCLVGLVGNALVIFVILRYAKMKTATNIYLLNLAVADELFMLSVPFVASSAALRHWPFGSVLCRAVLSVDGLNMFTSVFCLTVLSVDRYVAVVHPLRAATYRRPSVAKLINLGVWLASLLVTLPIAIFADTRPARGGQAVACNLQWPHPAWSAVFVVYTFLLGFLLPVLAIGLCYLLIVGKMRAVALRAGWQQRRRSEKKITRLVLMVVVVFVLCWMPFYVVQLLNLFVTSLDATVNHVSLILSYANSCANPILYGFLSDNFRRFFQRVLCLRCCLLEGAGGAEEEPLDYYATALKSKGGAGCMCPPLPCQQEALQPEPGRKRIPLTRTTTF

Row | SMILES | IC50 (human CYP2D6 isozyme) | EC50 [1, 2] | EC50 (hSSTR4) | hSST4/hSST2 (ratio) (hSSTR4) | IC50 (hERG ion channel) | EC50 [1, 3]
1 | Cc1cc(F)cc(-c2cncc(-c3nc4cc(C#N)ccc4[nH]3)c2N2CCC(N)CC2)c1 [R^1=H, R^5=H, R^6=5-CN, R^7=H, reference compound] | > 5000 nM | 0.13 nM | 1.2 nM | c (between 2.5 and 15) | < 5000 nM | –
2 | Cc1cc(F)cc(-c2cncc(-c3nc4cc(F)ccc4[nH]3)c2N2CCC(N)CC2)c1 [R^1=H, R^5=H, R^6=5-F, R^7=H, reference compound] | < 5000 nM | – | 0.12 nM | – | – | –
3 | Cc1cc(F)cc(-c2cnc(N)c(-c3nc4cc(F)cc(F)c4[nH]3)c2N2CCC(N)CC2)c1 [Compound 1-2, 4-(4-aminopiperidin-1-yl)-3-(5,7-difluoro-1H-1,3-benzodiazol-2-yl)-5-(3-fluoro-5-methylphenyl)pyridin-2-amine] | > 5000 nM | 0.05 nM | 1.3 nM | b (between 15 and 50) | > 5000 nM | < 10 nM
4 | Cc1cc(F)cc(-c2cnc(N)c(-c3nc4cccc(F)c4[nH]3)c2N2CCC(N)CC2)c1 [Compound 1-11, 4-(4-aminopiperidin-1-yl)-3-(7-fluoro-1H-1,3-benzodiazol-2-yl)-5-(3-fluoro-5-methylphenyl)pyridin-2-amine] | > 5000 nM | 0.27 nM | 0.71 nM | c (between 2.5 and 15) | > 5000 nM | < 10 nM
5 | Cc1cc(F)cc(-c2cnc(N)c(-c3nc4cc(OC(F)(F)F)ccc4[nH]3)c2N2CCC(N)CC2)c1 [Compound 1-14, 4-(4-aminopiperidin-1-yl)-5-(3-fluoro-5-methylphenyl)-3-[5-(trifluoromethoxy)-1H-1,3-benzodiazol-2-yl]pyridin-2-amine] | – | – | – | a (above 50) | – | < 10 nM
6 | Cc1cc(F)cc(-c2cnc(N)c(-c3nc4cc(Cl)ccc4[nH]3)c2N2CCC(N)CC2)c1 [Compound 1-1, 4-(4-aminopiperidin-1-yl)-3-(5-chloro-1H-1,3-benzodiazol-2-yl)-5-(3-fluoro-5-methylphenyl)pyridin-2-amine] | > 5000 nM | 0.03 nM | 0.7 nM | b (between 15 and 50) | > 5000 nM | < 10 nM
7 | Cc1cc(F)cc(-c2cnc(N)c(-c3nc4cc(Cl)cc(F)c4[nH]3)c2N2CCC(N)CC2)c1 [Compound 1-54, 4-(4-aminopiperidin-1-yl)-3-(5-chloro-7-fluoro-1H-1,3-benzodiazol-2-yl)-5-(3-fluoro-5-methylphenyl)pyridin-2-amine] | – | – | – | a (above 50) | – | < 10 nM
8 | Cc1cc(F)cc(-c2cncc(-c3nc4cccc(F)c4[nH]3)c2N2CCC(N)CC2)c1 [R^1=H, R^5=H, R^6=H, R^7=7-F, reference compound] | < 5000 nM | 0.43 nM | 0.09 nM | e (below 1) | > 5000 nM | –
9 | CNc1ncc(-c2cc(C)cc(F)c2)c(N2CCC(N)CC2)c1-c1nc2cc(Cl)ccc2[nH]1 [Compound 1-28, 4-(4-aminopiperidin-1-yl)-3-(5-chloro-1H-1,3-benzodiazol-2-yl)-5-(3-fluoro-5-methylphenyl)-N-methylpyridin-2-amine] | – | – | – | a (above 50) | – | < 10 nM
10 | COCCNc1ncc(-c2cc(C)cc(F)c2)c(N2CCC(N)CC2)c1-c1nc2c(F)cc(F)cc2[nH]1 [Compound 1-56] | – | – | – | a (above 50) | – | < 10 nM
11 | Cc1cc(F)cc(-c2cnc(N)c(-c3nc4cccc(C)c4[nH]3)c2N2CCC(N)CC2)c1 [Compound 1-10, 4-(4-aminopiperidin-1-yl)-5-(3-fluoro-5-methylphenyl)-3-(7-methyl-1H-1,3-benzodiazol-2-yl)pyridin-2-amine] | – | – | – | c (between 2.5 and 15) | – | < 10 nM
12 | COc1cc(F)c2nc(-c3c(N)ncc(-c4cc(C)cc(F)c4)c3N3CCC(N)CC3)[nH]c2c1 [Compound 1-59, 4-(4-aminopiperidin-1-yl)-5-(3-fluoro-5-methylphenyl)-3-(4-fluoro-6-methoxy-1H-1,3-benzodiazol-2-yl)pyridin-2-amine] | – | – | – | b (between 15 and 50) | – | < 10 nM
13 | CCNc1ncc(-c2cc(C)cc(F)c2)c(N2CCC(N)CC2)c1-c1nc2cc(Cl)ccc2[nH]1 [Compound 1-30, 4-(4-aminopiperidin-1-yl)-3-(5-chloro-1H-1,3-benzodiazol-2-yl)-N-ethyl-5-(3-fluoro-5-methylphenyl)pyridin-2-amine] | – | – | – | a (above 50) | – | < 10 nM
14 | Cc1cc(F)cc(-c2cnc(N)c(-c3nc4cc(F)c(F)cc4n3C)c2N2CCC(N)CC2)c1 [Compound 1-57, 4-(4-aminopiperidin-1-yl)-3-(5,6-difluoro-1-methyl-1H-1,3-benzodiazol-2-yl)-5-(3-fluoro-5-methylphenyl)pyridin-2-amine] | – | – | – | a (above 50) | – | < 10 nM
15 | COc1ncc(-c2cc(C)cc(F)c2)c(N2CCC(N)CC2)c1-c1nc2cc(Cl)ccc2[nH]1 [Compound 2-2, 1-[3-(5-chloro-1H-1,3-benzodiazol-2-yl)-5-(3-fluoro-5-methylphenyl)-2-methoxypyridin-4-yl]piperidin-4-amine] | – | – | – | a (above 50) | – | < 10 nM
16 | COc1cc(F)cc2nc(-c3c(N(C)C)ncc(-c4cc(C)cc(F)c4)c3N3CCC(N)CC3)[nH]c12 [Compound 4-6, 4-(4-aminopiperidin-1-yl)-3-(5-fluoro-7-methoxy-1H-1,3-benzodiazol-2-yl)-5-(3-fluoro-5-methylphenyl)-N,N-dimethylpyridin-2-amine] | – | – | – | b (between 15 and 50) | – | < 10 nM
17 | CNc1ncc(-c2cc(C)cc(F)c2)c(N2CCC(N)CC2)c1-c1nc2cccc(OC)c2[nH]1 [Compound 1-71, 4-(4-aminopiperidin-1-yl)-5-(3-fluoro-5-methylphenyl)-3-(7-methoxy-1H-1,3-benzodiazol-2-yl)-N-methylpyridin-2-amine] | – | – | – | c (between 2.5 and 15) | – | < 10 nM
18 | COc1cc(F)cc2[nH]c(-c3c(N)ncc(-c4cc(C)cc(F)c4)c3N3CCC(N)CC3)nc12 [Compound 1-58, 4-(4-aminopiperidin-1-yl)-3-(6-fluoro-4-methoxy-1H-1,3-benzodiazol-2-yl)-5-(3-fluoro-5-methylphenyl)pyridin-2-amine] | – | – | – | c (between 2.5 and 15) | – | < 10 nM
